Assay [1] addresses T1, IRAK4 (Homo sapiens, UniProt Q9NWZ3).
T1 sequence (Q9NWZ3 1-460): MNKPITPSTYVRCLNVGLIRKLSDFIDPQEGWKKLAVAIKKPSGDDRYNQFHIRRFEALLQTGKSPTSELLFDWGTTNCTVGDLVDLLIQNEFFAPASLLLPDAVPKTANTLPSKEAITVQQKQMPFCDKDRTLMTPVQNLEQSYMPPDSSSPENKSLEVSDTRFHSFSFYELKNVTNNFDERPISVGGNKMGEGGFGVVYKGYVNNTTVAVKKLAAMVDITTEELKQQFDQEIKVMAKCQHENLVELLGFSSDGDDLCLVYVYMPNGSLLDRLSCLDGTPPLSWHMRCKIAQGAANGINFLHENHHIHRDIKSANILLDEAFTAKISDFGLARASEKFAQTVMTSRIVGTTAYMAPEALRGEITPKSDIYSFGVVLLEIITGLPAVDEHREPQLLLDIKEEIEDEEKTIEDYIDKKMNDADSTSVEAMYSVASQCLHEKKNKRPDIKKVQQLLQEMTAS
Nature of the assay: Hibit fluorescence detection of proteolysis (IRAK4-HiBiT in HEK293T cells). The note with it: for Dmax: HEK-293T; for DC50: IRAK4-HiBiT, HEK293T cells, 24 h. Format: cell-based. The arrangement: host or cells: HEK293T (ATCC). In outline:
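Degradation read-out: luminescence from lytic HiBiT detection (15 min, room temperature) after 24 h compound exposure (37 °C, 5% CO2) of HEK293T cells transiently expressing IRAK4 fused to a HiBiT tag. Data fitted to a bell-shaped four-parameter model giving two EC50 values.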
For orientation: The HiBiT peptide binds its large partner to form an active luciferase.

Assay [2] concerns the target T1, IRAK4. Nature of the assay: WB detection of proteolysis (Western Blot, THP-1 cells). Format: cell-based. As to the method:
The degradation level of IRAK4 in THP-1 cells was detected by Western Blot technology. […] 1000X gradient dilution stock of the compound was prepared, with the highest concentration set at 300 µM. The dilution was carried out using DMSO in a 1:3 dilution factor, yielding a total of 9 concentrations. 1000X gradient dilutions of the compound were added to a 12-well plate, with 1 µL per well. Incubation was performed under conditions of 37°C and 5% CO2 for 24 h, and the cells were collected into 2 mL of centrifuge tubes and centrifuged at 5000 rpm for 5 min, and the supernatant was removed. 100 µL of RIPA lysis buffer (Beyotime, P0013C) was added and mixed uniformly, then the cells were lysed on ice for 10 min, centrifuged at 4°C at 14000 rpm for 10 min, and the supernatant was collected. Protein content was determined with BCA (Solarbio, PC0020-10*50T). 75 µL of the supernatant was taken, and 25 µL of NuPAGE LDS Sample Buffer (4X) (Thermo B0007) was added to each tube (5% β-mercaptoethanol was added before use) to prepare samples, and the samples were boiled in a metal bath at 100°C for 5 min. […] 1x NuPAGE™ MOPS SDS electrophoresis buffer (20X) (Invitrogen, NP0001) was prepared, and the electrophoresis instrument was set to a constant current of 300 mA for 100 min, and the protein was transferred to a PVDF membrane (Millipore, IPVH00010). […] The membrane was washed three times with 1x TBST (Elabscience E-BC-R335) the next day, each time for 5 min. […] The membrane was washed three times with TBST, each time for 5 min. The Odyssey imaging system Li-cor Odyssey CLx was used to detect signals and analyze data. GraphPad (Prism 9.3) software was used to perform analysis for data, and non-linear fitting (non-liner inhibitor (Bell-shaped)) and four parameters (4 parameter) were used, and the parameters was as follows: Span1 = Plateau1−Dip [formula] Span2 = Plateau2−Dip [formula] Section1 = Span1/(1+10^(∧)((LogEC50_1−X)*nH1)) [formula] Section2 = Span2/(1+10^(∧)((X−LogEC50_2)*nH2)) [formula]
The equation was as follows: Y=Dip+Section1+Section2.
(Immunoblotting shows a protein as a band on a membrane.)

Setting [3] is: Western Blot, THP-1 cells, 24 h, read-out: DC50.
Where [4] appears, read: Western Blot, THP-1 cells, 24 h, read-out: Dmax.

SMILES strings stand for the structures.

As for `C[C@H]1CN(c2cccc3c2n(C)c(=O)n3C2CCC(=O)NC2=O)CCN1C[C@H]1CC[C@H](n2cc(-n3cc(-c4ccc5cc(C(N)=O)cnn45)nn3)c(C(F)F)n2)CC1` (stereo partly drawn) [Example 96], the values for the Dmax at IRAK4 [1] and at IRAK4 [2] (setting [4]) were above 80% and above 70%, respectively. Besides, the results for the DC50 at IRAK4 [1] and on IRAK4 [2] (setting [3]) were below 0.5 nM and below 10 nM, respectively.

With `Cn1c(=O)n(C2CCC(=O)NC2=O)c2cccc(N3CCC(N4CCN(C[C@H]5CC[C@H](n6cc(-n7cc(-n8ccc9cc(C(N)=O)cnc98)nn7)c(C(F)F)n6)CC5)CC4)CC3)c21` (stereo partly drawn) [Example 98, 1-(1-(3-(difluoromethyl)-1-((1r,4r)-4-((4-(1-(2-(2,6-dioxopiperidin-3-yl)-3-methyl-2-oxo-3,3-dihydro-1H-benzo[d]imidazol-4-yl)piperidin-4-yl)piperazin-1-yl)methyl)cyclohexyl)-1H-pyrazol-4-yl)-1H-1-1,2,3-triazole)-1H-pyrrolo[2,3-b]pyridine-5-carboxamide], the Dmax at IRAK4 [1] is above 80%; on IRAK4 [2] (setting [4]) it was above 70%. Also, the DC50 at IRAK4 [1] was below 0.5 nM; on IRAK4 [2] (setting [3]), below 10 nM.

Regarding `Cn1c(=O)n(C2CCC(=O)NC2=O)c2cccc(N[C@H]3CC[C@@H](N(C)C[C@H]4CC[C@H](n5cc(-n6cc(-c7cnn8ccc(N9CCOCC9)nc78)nn6)c(C(F)F)n5)CC4)CC3)c21` (stereo partly drawn) [Example 54], the Dmax on IRAK4 [1] is above 80%; on IRAK4 [2] (setting [4]) it was 60 to 70%. The DC50 at IRAK4 [1] was below 0.5 nM; at IRAK4 [2] (setting [3]) it was below 10 nM.

As for `Cn1c(=O)n(C2CCC(=O)NC2=O)c2cccc(N3CCC4(CCN(C[C@H]5CC[C@H](n6cc(-n7cc(-c8cnn9ccc(N%10CCC(O)CC%10)nc89)nn7)c(C(F)F)n6)CC5)CC4)CC3)c21` (stereo partly drawn) [Example 136], the Dmax on IRAK4 [1] was above 80%; at IRAK4 [2] (setting [4]) it was above 70%. For the same compound, the DC50 at IRAK4 [1] was below 0.5 nM; on IRAK4 [2] (setting [3]) it was below 10 nM.

For the compound `Cn1c(=O)n(C2CCC(=O)NC2=O)c2cccc(N3CC4(CCN(C[C@H]5CC[C@H](n6cc(-n7cc(-c8ccc9cc(C(N)=O)cnn89)nn7)c(C(F)F)n6)CC5)CC4)C3)c21` (stereo partly drawn) [Example 35], the Dmax is above 80% on IRAK4 [1] and 60 to 70% at IRAK4 [2] (setting [4]). Besides, the DC50 on IRAK4 [1] is below 0.5 nM; at IRAK4 [2] (setting [3]), below 10 nM.

Consider `Cn1c(=O)n(C2CCC(=O)NC2=O)c2cccc(N3CCC4(CCN(C[C@H]5CC[C@H](n6cc(-n7cc(-c8cnn9ccc(N[C@H]%10CCCC[C@H]%10O)nc89)nn7)c(C(F)F)n6)CC5)C4)CC3)c21` (stereo partly drawn) [Example 147], for which the Dmax at IRAK4 [1] is above 80%; on IRAK4 [2] (setting [4]), above 70%. Further, the DC50 is below 0.5 nM at IRAK4 [1] and 10 to 30 nM on IRAK4 [2] (setting [3]).

On to `Cn1c(=O)n(C2CCC(=O)NC2=O)c2cccc(N3CCC4(CCN(C[C@H]5CC[C@H](n6cc(-n7cc(-c8cnn9ccc(N%10CCOCC%10)nc89)nn7)c(C(F)F)n6)CC5)CC4)CC3)c21` (stereo partly drawn) [Example 36], for which the values for the Dmax on IRAK4 [1] and on IRAK4 [2] (setting [4]) were above 80% and 60 to 70%, respectively. Also, the DC50 on IRAK4 [1] is below 0.5 nM; on IRAK4 [2] (setting [3]), below 10 nM.

For the compound `Cn1c(=O)n(C2CCC(=O)NC2=O)c2cccc(N3CCC4(CCN(C[C@H]5CC[C@H](n6cc(-n7cc(-c8cnn9ccc(N%10CCC[C@@H](O)C%10)nc89)nn7)c(C(F)F)n6)CC5)C4)CC3)c21` (stereo partly drawn) [Example 248], the Dmax is above 80% on IRAK4 [1] and above 70% on IRAK4 [2] (setting [4]). Also, the DC50 on IRAK4 [1] was below 0.5 nM; on IRAK4 [2] (setting [3]), below 10 nM.

With `Cn1c(=O)n(C2CCC(=O)NC2=O)c2cccc(N3CCN(C[C@H]4CC[C@H](n5cc(-n6cc(-c7cnn8ccc(N9CCC[C@H](N)C9)nc78)nn6)c(C(F)F)n5)CC4)CC3)c21` (stereo partly drawn) [Example 115], the Dmax at IRAK4 [1] was above 80%; on IRAK4 [2] (setting [4]), above 70%. The values for the DC50 on IRAK4 [1] and on IRAK4 [2] (setting [3]) were below 0.5 nM and below 10 nM, respectively.

As for `Cn1c(=O)n(C2CCC(=O)NC2=O)c2cccc(N3CCN(C4CCN(C[C@H]5CC[C@H](n6cc(-n7cc(-c8cnn9ccc(N%10CCC[C@@H](O)C%10)nc89)nn7)c(C(F)F)n6)CC5)CC4)CC3)c21` (stereo partly drawn) [Example 245], the Dmax on IRAK4 [1] is above 80%; at IRAK4 [2] (setting [4]), above 70%. Also, the DC50 was below 0.5 nM at IRAK4 [1] and below 10 nM at IRAK4 [2] (setting [3]).

For the compound `Cn1c(=O)n(C2CCC(=O)NC2=O)c2cccc(N[C@H]3CC[C@H](N(C)C[C@H]4CC[C@H](n5cc(-n6cc(-c7cnn8ccc(N9CCOCC9)nc78)nn6)c(C(F)F)n5)CC4)CC3)c21` (stereo partly drawn) [Example 55, 3-(4-(((1R,4r)-4-((((1r,4R)-4-(3-(difluoromethyl)-4-(4-(5-morpholinopyrazolo[1,5-a]pyrimidin-3-yl)-1H-1,2,3-triazol-1-yl)-1H-pyrazol-1-yl)cyclohexyl)methyl)(methyl)amino)cyclohexyl)amino)-3-methyl-2-oxo-2,3-dihydro-1H-benzo[d]imidazol-1-yl)piperidine-2,6-dione], the results for the Dmax on IRAK4 [1] and at IRAK4 [2] (THP-1) were above 80% and below 60%, respectively. The DC50 on IRAK4 [1] was below 0.5 nM; at IRAK4 [2] (Western Blot, THP-1 cells, 24 h) it was below 10 nM.

Turning to `C[C@H]1COCCN1c1ccn2ncc(-c3cn(-c4cn([C@H]5CC[C@H](CN6CCC7(CC6)CCN(c6cccc8c6n(C)c(=O)n8C6CCC(=O)NC6=O)C7)CC5)nc4C(F)F)nn3)c2n1` (stereo partly drawn) [Compound 204], the results for the Dmax at IRAK4 [1] and at IRAK4 [2] (setting [4]) were 70 to 80% and 60 to 70%, respectively. The values for the DC50 at IRAK4 [1] (read-out: DC50) and at IRAK4 [2] (setting [3]) were below 0.5 nM and below 10 nM, respectively.

Regarding `Cn1c(=O)n(C2CCC(=O)NC2=O)c2cccc(N3CCC(N4CCN(C[C@H]5CC[C@H](n6cc(-n7cc(-c8cnn9ccc(N[C@@H]%10CCCC[C@@H]%10O)nc89)nn7)c(C(F)F)n6)CC5)CC4)CC3)c21` (stereo partly drawn) [Example 155], the figures for the Dmax on IRAK4 [1] and on IRAK4 [2] (setting [4]) were above 80% and above 70%, respectively. The DC50 at IRAK4 [1] is below 0.5 nM; on IRAK4 [2] (setting [3]) it was below 10 nM.

As to `Cn1c(=O)n(C2CCC(=O)NC2=O)c2cccc(N3CCC4(CCN(C[C@H]5CC[C@H](n6cc(-n7cc(-c8ccc9cc(C(N)=O)cnn89)nn7)c(C(F)F)n6)CC5)C4)CC3)c21` (stereo partly drawn) [Example 37], the Dmax on IRAK4 [1] was above 80%; at IRAK4 [2] (setting [4]), 60 to 70%. The DC50 on IRAK4 [1] is below 0.5 nM; at IRAK4 [2] (setting [3]), below 10 nM.

`Cn1c(=O)n(C2CCC(=O)NC2=O)c2cccc(N3CCC4(CCN(C[C@H]5CC[C@H](n6cc(-n7cc(-c8cnn9ccc(N[C@H]%10CCCC[C@H]%10O)nc89)nn7)c(C(F)F)n6)CC5)CC4)CC3)c21` (stereo partly drawn) [Example 148]: the figures for the Dmax on IRAK4 [1] and on IRAK4 [2] (setting [4]) were above 80% and above 70%, respectively. For the same compound, the DC50 on IRAK4 [1] is below 0.5 nM; at IRAK4 [2] (setting [3]), 10 to 30 nM.

Consider `Cn1c(=O)n(C2CCC(=O)NC2=O)c2cccc(N3CCC4(CC3)CN(C[C@H]3CC[C@H](n5cc(-n6cc(-c7ccc8cc(C(N)=O)cnn78)nn6)c(C(F)F)n5)CC3)C4)c21` (stereo partly drawn) [Example 64], for which the Dmax is above 80% on IRAK4 [1] and 60 to 70% on IRAK4 [2] (setting [4]). Also, the DC50 at IRAK4 [1] was below 0.5 nM; on IRAK4 [2] (setting [3]), above 30 nM.

On to `Cn1c(=O)n(C2CCC(=O)NC2=O)c2cccc(N3CCC4(CCN(C[C@H]5CC[C@H](n6cc(-n7cc(-c8cnn9ccc(N%10CCC[C@H](O)C%10)nc89)nn7)c(C(F)F)n6)CC5)C4)CC3)c21` (stereo partly drawn) [Example 145], for which the Dmax on IRAK4 [1] is above 80%; on IRAK4 [2] (setting [4]), above 70%. Further, the DC50 at IRAK4 [1] is below 0.5 nM; on IRAK4 [2] (setting [3]), below 10 nM.

As to `Cn1c(=O)n(C2CCC(=O)NC2=O)c2cccc(N3CCC4(CCN(C[C@H]5CC[C@H](n6cc(-n7cc(-c8cnn9ccc(N[C@@H]%10CCCC[C@@H]%10O)nc89)nn7)c(C(F)F)n6)CC5)CC4)CC3)c21` (stereo partly drawn) [Example 151], the Dmax at IRAK4 [1] was above 80%; on IRAK4 [2] (setting [4]), above 70%. For the same compound, the DC50 at IRAK4 [1] is below 0.5 nM; at IRAK4 [2] (setting [3]), below 10 nM.

Source of the values: patent EP4759807A1, “PROTEOLYSIS TARGETING CHIMERA COMPOUND FOR DEGRADING IRAK4 AND USE THEREOF” (Shenzhen Zhongge Biological Technology Co., Ltd., priority 2023, dated 2025).
